Measured values reported in PMC4103896, “Characterization and Evolutionary Implications of the Triad Asp-Xxx-Glu in Group II Phosphopantetheinyl Transferases” (PLoS ONE, 2014).

Tests used:
Format in all cases: biochemical
[1] = molecular target: T1, SchPPT (Streptomyces chattanoogensis, UniProt H9N836); assay: in vitro phosphopantetheinylation of scn ACP0-2, LC-MS; conditions: 2 mM CoA, 200 uM scn ACP0-2, 20 uM PPTase, 1.25 mM MgCl2, pH 7.5, 25 °C, 30 min
T1 construct: full-length group II (Sfp-type) PPTase; SchPPT cloned in pET28a (pHJ0024), E. coli; N-terminal His6 stated for the mutants

[2] = molecular target: T2, Sppt (Synechocystis sp. PCC 6803, UniProt Q55185); assay: in vitro phosphopantetheinylation of sch FAS ACP, HPLC; conditions: 2 mM CoA, 200 uM sch FAS ACP, 20 uM Sppt, 1.25 mM MgCl2, pH 7.5, 25 °C, 30 min
T2 construct: gene slr0495; full-length

[3] = molecular target: T3, Sppt (Synechocystis sp. PCC 6803, UniProt Q55185, Q112E); assay: as above; conditions: 2 mM CoA, 200 uM sch FAS ACP, 20 uM Sppt, 1.25 mM MgCl2, pH 7.5, 25 °C, 30 min
T3 construct: gene slr0495; full-length
T3 sequence (Q55185 whole entry Q112E): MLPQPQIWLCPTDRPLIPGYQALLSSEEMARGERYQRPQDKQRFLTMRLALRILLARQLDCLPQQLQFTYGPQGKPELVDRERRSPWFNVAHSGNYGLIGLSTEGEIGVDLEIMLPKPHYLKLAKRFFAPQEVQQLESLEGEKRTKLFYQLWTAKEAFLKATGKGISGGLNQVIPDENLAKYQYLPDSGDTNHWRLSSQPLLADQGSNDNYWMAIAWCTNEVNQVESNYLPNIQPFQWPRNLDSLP

T2 sequence (Q55185 whole entry): as the sequence (Q55185 whole entry Q112E) above, with E112Q counted along it
T1 sequence (H9N836 entry or part of it): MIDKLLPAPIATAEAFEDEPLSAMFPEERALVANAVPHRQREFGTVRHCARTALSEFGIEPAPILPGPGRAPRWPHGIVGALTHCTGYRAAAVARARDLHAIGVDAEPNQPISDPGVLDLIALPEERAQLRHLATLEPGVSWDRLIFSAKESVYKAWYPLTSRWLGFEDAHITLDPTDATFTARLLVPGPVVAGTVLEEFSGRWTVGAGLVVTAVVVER

CC(C)(COP(=O)(O)OP(=O)(O)OC[C@H]1O[C@@H](n2cnc3c(N)ncnc32)[C@H](O)[C@@H]1OP(=O)(O)O)[C@@H](O)C(=O)NCCC(=O)NCCS [CoA]
in vitro phosphopantetheinylation of scn ACP0-2, LC-MS [1]: only wild type SchPPT but neither of the two mutants phosphopantetheinylated scn ACP0-2 | in vitro phosphopantetheinylation of sch FAS ACP, HPLC [2]: After incubation of sch FAS ACP with CoA in the presence of Sppt | in vitro phosphopantetheinylation of sch FAS ACP, HPLC [3]: After incubation of sch FAS ACP with CoA in the presence of SpptQ112E
